Assay results taken from PubChem BioAssay AID328 (DTP/NCI, 2004).
Several values for one entry are separate records, joined by “and”; a condition that tells them apart may be missing. Equal values may be shown once. Toxic doses and inconclusive results are not listed.

Tested on: BDF1 mice, P388 leukemia ip, median survival T/C
Experiment: NCI In Vivo Anticancer Drug Screen. Data for tumor model P388 Leukemia (intraperitoneal) in B6D2F1 (BDF1) mice
Conditions: endpoint: median survival time, higher = longer survival
Outline: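 T/C = treated-group survival ÷ vehicle-control survival; tumour transplanted into mice before dosing.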

[1] = dose: 100.0 mg/kg/injection, schedule: Q01DX009 (ip), vehicle: saline with Tween-80
[2] = dose: 200.0 mg/kg/injection, schedule: Q01DX009 (ip), vehicle: saline with Tween-80
[3] = dose: 400.0 mg/kg/injection, schedule: Q01DX009 (ip), vehicle: saline with Tween-80
[4] = dose: 3.12 mg/kg/injection, schedule: Q01DX009 (ip), vehicle: saline with Tween-80
[5] = dose: 6.25 mg/kg/injection, schedule: Q01DX009 (ip), vehicle: saline with Tween-80
[6] = dose: 12.5 mg/kg/injection, schedule: Q01DX009 (ip), vehicle: saline with Tween-80
[7] = dose: 12.5 mg/kg/injection, schedule: Q01DX009 (ip), vehicle: saline
[8] = dose: 50.0 mg/kg/injection, schedule: Q01DX009 (ip), vehicle: saline with Tween-80
[9] = dose: 400.0 mg/kg/injection, schedule: Q04DX003 (ip), vehicle: Klucel (hydroxypropylcellulose) (HPC)
[10] = dose: 50.0 mg/kg/injection, schedule: Q04DX003 (ip), vehicle: saline
[11] = dose: 25.0 mg/kg/injection, schedule: Q04DX003 (ip), vehicle: Klucel (hydroxypropylcellulose) (HPC)
[12] = dose: 75.0 mg/kg/injection, schedule: Q04DX003 (ip), vehicle: saline

## Cc1cccc(NC(=O)NCCOC(=O)OCCNC(=O)Nc2cccc(C)c2C)c1C
[1]
  T/C: 90 % of control
[2]
  T/C: 90 % of control
[3]
  T/C: 113 % of control

## CC(C(O)c1cccs1)C(O)(C(F)(F)F)C(F)(F)F (stereo not drawn)
dose: 100.0 mg/kg/injection, schedule: Q04DX003 (ip), vehicle: saline with Tween-80
  T/C: 90 % of control
dose: 200.0 mg/kg/injection, schedule: Q04DX003 (ip), vehicle: saline with Tween-80
  T/C: 109 % of control

## CCC[CH2][Sn]([CH2]CCC)([O]C(C)=O)[O]C(C)=O
[4]
  T/C: 114 % of control
dose: 6.12 mg/kg/injection, schedule: Q01DX009 (ip), vehicle: saline
  T/C: 154 % of control
[5]
  T/C: 151 % of control
[6]
  T/C: 86 % of control
[7]
  T/C: 156 % of control

## N#Cc1ccc(C(=O)/C=C/c2ccc(OCc3ccccc3)cc2)cc1
[8]
  T/C: 91 % of control
[1]
  T/C: 89 % of control
[2]
  T/C: 91 % of control

## COc1c2occc2c(CC(O)C(C)(C)O)c2ccc(=O)oc12 (stereo not drawn)
dose: 43.8 mg/kg/injection, schedule: Q01DX009 (ip), vehicle: Klucel (hydroxypropylcellulose) (HPC)
  T/C: 103 % of control
dose: 87.5 mg/kg/injection, schedule: Q01DX009 (ip), vehicle: Klucel (hydroxypropylcellulose) (HPC)
  T/C: 92 % of control
dose: 175.0 mg/kg/injection, schedule: Q01DX009 (ip), vehicle: Klucel (hydroxypropylcellulose) (HPC)
  T/C: 90 % of control

## CC1=CC=CC2=NC(=O)CCN12
[8]
  T/C: 94 % of control
[1]
  T/C: 94 % of control
[2]
  T/C: 100 % of control

## CCC(C)C1(C)OC1C(=O)OC (stereo not drawn)
[2]
  T/C: 107 % of control
[3]
  T/C: 107 % of control

## CC12CCC(C=C1N1CCCCC1)C(C)(C)O2 (stereo not drawn)
dose: 50.0 mg/kg/injection, schedule: Q01DX005 (ip), vehicle: saline with Tween-80
  T/C: 101 % of control
dose: 100.0 mg/kg/injection, schedule: Q01DX005 (ip), vehicle: saline with Tween-80
  T/C: 101 % of control
dose: 200.0 mg/kg/injection, schedule: Q01DX005 (ip), vehicle: saline with Tween-80
  T/C: 106 % of control

## CCCCN(CCCC)c1ccc(/C=C/c2ccnc3ccccc23)cc1
dose: 100.0 mg/kg/injection, schedule: Q01DX009 (sc), vehicle: olive oil, sesame oil, peanut oil
  T/C: 88 % of control
dose: 100.0 mg/kg/injection, schedule: Q04DX003 (sc), vehicle: olive oil, sesame oil, peanut oil
  T/C: 88 % of control and 95 % of control
dose: 200.0 mg/kg/injection, schedule: Q01DX009 (sc), vehicle: olive oil, sesame oil, peanut oil
  T/C: 88 % of control
dose: 200.0 mg/kg/injection, schedule: Q04DX003 (sc), vehicle: olive oil, sesame oil, peanut oil
  T/C: 92 % of control and 95 % of control
dose: 400.0 mg/kg/injection, schedule: Q01DX009 (sc), vehicle: olive oil, sesame oil, peanut oil
  T/C: 92 % of control
dose: 400.0 mg/kg/injection, schedule: Q04DX003 (sc), vehicle: olive oil, sesame oil, peanut oil
  T/C: 92 % of control and 95 % of control

## CC[NH-].CC[NH-].[Br][Pt+2][Br]
dose: 20.0 mg/kg/injection, schedule: Q04DX003 (ip), vehicle: other
  T/C: 100 % of control
dose: 30.0 mg/kg/injection, schedule: Q04DX003 (ip), vehicle: other
  T/C: 158 % of control
dose: 44.0 mg/kg/injection, schedule: Q04DX003 (ip), vehicle: other
  T/C: 154 % of control and 166 % of control
dose: 66.0 mg/kg/injection, schedule: Q04DX003 (ip), vehicle: other
  T/C: 159 % of control
dose: 100.0 mg/kg/injection, schedule: Q04DX003 (ip), vehicle: other
  T/C: 166 % of control and 168 % of control
dose: 150.0 mg/kg/injection, schedule: Q04DX003 (ip), vehicle: other
  T/C: 154 % of control
dose: 200.0 mg/kg/injection, schedule: Q04DX003 (ip), vehicle: other
  T/C: 162 % of control

## C/C=C(/C)N(C(C)=O)N(C(C)=O)c1ccc([N+](=O)[O-])cc1[N+](=O)[O-]
dose: 100.0 mg/kg/injection, schedule: Q01DX001 (ip), vehicle: Klucel (hydroxypropylcellulose) (HPC)
  T/C: 109 % of control
dose: 100.0 mg/kg/injection, schedule: Q04DX003 (ip), vehicle: Klucel (hydroxypropylcellulose) (HPC)
  T/C: 90 % of control
dose: 200.0 mg/kg/injection, schedule: Q01DX001 (ip), vehicle: Klucel (hydroxypropylcellulose) (HPC)
  T/C: 100 % of control
dose: 200.0 mg/kg/injection, schedule: Q04DX003 (ip), vehicle: Klucel (hydroxypropylcellulose) (HPC)
  T/C: 104 % of control
dose: 400.0 mg/kg/injection, schedule: Q01DX001 (ip), vehicle: Klucel (hydroxypropylcellulose) (HPC)
  T/C: 109 % of control
[9]
  T/C: 95 % of control

## CN(C)CCCN=C1Nc2ccccc2C(=NCCCN(C)C)Nc2ccccc21
[7]
  T/C: 104 % of control
dose: 12.5 mg/kg/injection, schedule: Q04DX003 (ip), vehicle: saline
  T/C: 100 % of control
dose: 25.0 mg/kg/injection, schedule: Q01DX009 (ip), vehicle: saline
  T/C: 95 % of control
dose: 25.0 mg/kg/injection, schedule: Q04DX003 (ip), vehicle: saline
  T/C: 88 % of control
dose: 50.0 mg/kg/injection, schedule: Q01DX009 (ip), vehicle: saline
  T/C: 100 % of control
[10]
  T/C: 111 % of control

## COc1c(C)c2c3c4c1C(=O)C(=CC4=O)NC(=O)/C(C)=C\C=C\C(C)C1OC(C)(C)OC(C1C)C(C)C(OC(C)=O)C(C)C(OC)/C=C/OC(C)(O2)C3=O (stereo not drawn)
[6]
  T/C: 109 % of control
dose: 25.0 mg/kg/injection, schedule: Q01DX009 (ip), vehicle: saline with Tween-80
  T/C: 113 % of control
[8]
  T/C: 105 % of control and 117 % of control

## CC1(C)CC(=O)C2=C(C1)OC1=C(C(=O)CC(C)(C)C1)C2c1cccc([N+](=O)[O-])c1
[8]
  T/C: 104 % of control
[1]
  T/C: 123 % of control
[2]
  T/C: 106 % of control

## CCCCN(CCCC)CC(O)c1cc(Cl)cc2cccnc12 (stereo not drawn)
[4]
  T/C: 100 % of control
[5]
  T/C: 104 % of control
[6]
  T/C: 108 % of control
dose: 25.0 mg/kg/injection, schedule: Q01DX009 (ip), vehicle: Klucel (hydroxypropylcellulose) (HPC)
  T/C: 87 % of control and 92 % of control
[11]
  T/C: 108 % of control
dose: 50.0 mg/kg/injection, schedule: Q01DX009 (ip), vehicle: Klucel (hydroxypropylcellulose) (HPC)
  T/C: 100 % of control and 108 % of control
dose: 50.0 mg/kg/injection, schedule: Q04DX003 (ip), vehicle: Klucel (hydroxypropylcellulose) (HPC)
  T/C: 100 % of control

## COCCOP(=O)(N1CC1)N1CC1
dose: 33.0 mg/kg/injection, schedule: Q04DX003 (ip), vehicle: saline
  T/C: 190 % of control
[10]
  T/C: 236 % of control
[12]
  T/C: 272 % of control
dose: 100.0 mg/kg/injection, schedule: Q04DX003 (ip), vehicle: saline
  T/C: 118 % of control

## Cc1cc(NCCCCCCNc2cc(C)nc3ccc(N)cc23)c2cc(N)ccc2n1
dose: 37.5 mg/kg/injection, schedule: Q04DX003 (ip), vehicle: saline
  T/C: 163 % of control
[12]
  T/C: 159 % of control
dose: 150.0 mg/kg/injection, schedule: Q04DX003 (ip), vehicle: saline
  T/C: 218 % of control
dose: 198.0 mg/kg/injection, schedule: Q04DX003 (ip), vehicle: Klucel (hydroxypropylcellulose) (HPC)
  T/C: 213 % of control
dose: 200.0 mg/kg/injection, schedule: Q04DX003 (ip), vehicle: saline
  T/C: 210 % of control
dose: 300.0 mg/kg/injection, schedule: Q04DX003 (ip), vehicle: saline
  T/C: 230 % of control and 213 % of control
[9]
  T/C: 254 % of control
dose: 400.0 mg/kg/injection, schedule: Q04DX003 (ip), vehicle: saline
  T/C: 250 % of control

## C#CC[N+](CCO)(CCO)CCCCCCCCCCCCCCCCCC
dose: 3.13 mg/kg/injection, schedule: Q01DX009 (ip), vehicle: Klucel (hydroxypropylcellulose) (HPC)
  T/C: 110 % of control
dose: 6.25 mg/kg/injection, schedule: Q01DX009 (ip), vehicle: Klucel (hydroxypropylcellulose) (HPC)
  T/C: 109 % of control
dose: 12.5 mg/kg/injection, schedule: Q01DX009 (ip), vehicle: Klucel (hydroxypropylcellulose) (HPC)
  T/C: 113 % of control and 120 % of control

## O=C(NCCCCN1CC1)C(=O)NCCCCN1CC1
dose: 6.25 mg/kg/injection, schedule: Q04DX003 (ip), vehicle: Klucel (hydroxypropylcellulose) (HPC)
  T/C: 188 % of control
dose: 12.5 mg/kg/injection, schedule: Q04DX003 (ip), vehicle: Klucel (hydroxypropylcellulose) (HPC)
  T/C: 188 % of control
[11]
  T/C: 221 % of control

## [O-][n+]1onc2c(-c3ccccc3)nnc(-c3ccccc3)c21
dose: 100.0 mg/kg/injection, schedule: Q04DX003 (ip), vehicle: saline sonified
  T/C: 104 % of control
dose: 200.0 mg/kg/injection, schedule: Q04DX003 (ip), vehicle: saline sonified
  T/C: 90 % of control
dose: 400.0 mg/kg/injection, schedule: Q04DX003 (ip), vehicle: saline sonified
  T/C: 100 % of control
